What is called IC50 is the concentration at which inhibition is half-maximal. A higher IC50 goes with lower potency.

The first assay deals with PIK3CD (Human) (UniProt O00329). Description: Assessment of PIK3CD Kinase Activity (Scintillation Proximity Assay). For orientation: SPA uses beads or plates that emit light when radiolabelled molecules are held near them.
Sequence of PIK3CD (Human) (O00329 whole entry, looked up): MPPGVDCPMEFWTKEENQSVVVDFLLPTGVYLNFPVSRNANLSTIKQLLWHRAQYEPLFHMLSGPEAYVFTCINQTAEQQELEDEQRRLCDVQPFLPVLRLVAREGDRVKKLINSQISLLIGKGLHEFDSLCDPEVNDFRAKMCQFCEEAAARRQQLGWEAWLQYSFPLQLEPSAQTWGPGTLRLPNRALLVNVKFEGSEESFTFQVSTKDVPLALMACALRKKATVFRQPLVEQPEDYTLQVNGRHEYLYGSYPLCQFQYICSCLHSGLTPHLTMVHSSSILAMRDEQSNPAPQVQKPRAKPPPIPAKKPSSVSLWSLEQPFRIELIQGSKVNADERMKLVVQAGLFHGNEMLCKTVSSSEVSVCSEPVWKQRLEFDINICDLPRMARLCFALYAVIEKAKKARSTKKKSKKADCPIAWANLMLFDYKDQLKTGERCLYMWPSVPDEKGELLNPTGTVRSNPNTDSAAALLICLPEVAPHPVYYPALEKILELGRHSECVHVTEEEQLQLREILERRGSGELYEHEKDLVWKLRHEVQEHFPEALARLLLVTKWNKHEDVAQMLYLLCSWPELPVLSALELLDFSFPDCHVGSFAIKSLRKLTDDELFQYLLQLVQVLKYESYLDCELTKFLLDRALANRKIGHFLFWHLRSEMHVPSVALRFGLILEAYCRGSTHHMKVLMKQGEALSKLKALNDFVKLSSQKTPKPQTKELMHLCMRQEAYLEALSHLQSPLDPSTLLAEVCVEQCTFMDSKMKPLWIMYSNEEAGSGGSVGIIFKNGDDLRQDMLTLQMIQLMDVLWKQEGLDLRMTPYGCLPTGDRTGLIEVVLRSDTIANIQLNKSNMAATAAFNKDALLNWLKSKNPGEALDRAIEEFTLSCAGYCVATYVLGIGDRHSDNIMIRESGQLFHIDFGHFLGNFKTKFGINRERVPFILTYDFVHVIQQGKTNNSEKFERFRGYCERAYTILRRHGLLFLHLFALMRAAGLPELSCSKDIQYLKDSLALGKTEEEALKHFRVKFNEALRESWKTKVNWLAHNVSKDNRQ
As to `COc1c(C(C)n2nc(C)c3c(N)ncnc32)cc(Cl)c(C)c1-c1ccc(C(=O)N(C)C)c(F)c1` (stereo not drawn), the IC50 was at most 10 nM.
On to `CCNC(=O)N1CC(c2c(C#N)c(Cl)cc(C(C)n3nc(C)c4c(N)ncnc43)c2OCC)C1` (stereo not drawn), for which the IC50 is at most 10 nM.
As to `CCOc1c(C(C)n2nc(C)c3c(N)ncnc32)cc(Cl)c(C#N)c1C1CN(CCC(F)(F)F)C1` (stereo not drawn), the IC50 was at most 10 nM.
As to `COc1c(C(C)n2ccc(=O)c3c(N)ncnc32)cc(Cl)c(C)c1C1CN(C(C)C)C1` (stereo not drawn), the concentration for half-maximal inhibition (IC50) is at most 10 nM.
For the compound `COc1c(C(C)n2nc(C)c3c(N)ncnc32)cc(Cl)c(C)c1C1CN(C(=O)[C@@H](C)O)C1` (stereo partly drawn), the IC50 is at most 10 nM.
The compound `COc1c(C(C)n2nc(C)c3c(N)ncnc32)cc(C#N)c(C)c1-c1ccnc(C(=O)N(C)CCO)c1` (stereo not drawn) had a half-inhibitory concentration (IC50) of 10 to 50 nM.
Still for that read-out and setting: the value for `CCOc1c(C(C)n2nc(C)c3c(N)ncnc32)cc(Cl)c(C)c1-c1cnn(CC(=O)NC)c1` (stereo not drawn) was at most 10 nM; that for `CCOc1c(C(C)n2nc(C(F)F)c3c(N)ncnc32)cc(Cl)c(F)c1C1CN(C)C1` (stereo not drawn) was at most 10 nM.
In turn, `COc1c(C(C)n2nc(C)c3c(N)ncnc32)cc(Cl)c(C)c1C1CN(C[C@@H](O)C(F)(F)F)C1` (stereo partly drawn) returned an IC50 of at most 10 nM.
`COc1c(C(C)n2nc(C)c3c(N)ncnc32)cc(Cl)c(C)c1C1CN(C2(CC#N)CCC2)C1` (stereo not drawn) gave an IC50 of at most 10 nM.
For the compound `CCOc1c(C(C)n2nc(C)c3c(N)ncnc32)cc(Cl)c(C#N)c1C1CN(C[C@H](C)O)C1` (stereo partly drawn), the IC50 was at most 10 nM.
In the case of `CCOc1c(C(C)n2nc(C)c3c(N)ncnc32)cc(C)c(C#N)c1-c1ccnc(S(C)(=O)=O)c1` (stereo not drawn), the half-inhibitory concentration (IC50) was at most 10 nM.
The same measure, in the same setting: the value for `CCOc1c(C(C)n2nc(C)c3c(N)ncnc32)cc(Cl)c(C#N)c1-c1cncc(S(C)(=O)=O)c1` (stereo not drawn) was at most 10 nM.
For the compound `COc1c(C(C)n2nc(C)c3c(N)ncnc32)cc(Cl)c(C)c1C1CN(C[C@H](O)C(F)(F)F)C1` (stereo partly drawn), the concentration for half-maximal inhibition (IC50) is at most 10 nM.
In the case of `CNC(=O)c1ccc(-c2c(C)c(Cl)cc(C(C)n3ccc(=O)c4c(N)ncnc43)c2OC)cn1` (stereo not drawn), the IC50 was at most 10 nM.
`COc1c(C(C)n2ccc(=O)c3c(N)ncnc32)cc(Cl)c(C)c1-c1cccc(S(=O)(=O)N(C)C)c1` (stereo not drawn) had an IC50 of at most 10 nM.
Compound `CCOc1c(C(C)n2nc(C)c3c(N)ncnc32)cc(C)c(C#N)c1C1CN(C(=O)C(C)(C)O)C1` (stereo not drawn) came in with an IC50 of at most 10 nM.
The compound `CCNC(=O)c1c(C)c(Cl)cc(C(C)n2nc(-c3cc(O)cc(F)c3)c3c(N)ncnc32)c1OCC` (stereo not drawn) showed an IC50 of at most 10 nM.
The same measure, in the same setting: then `COc1c(C(C)n2nc(C)c3c(N)ncnc32)cc(Cl)c(C)c1-c1cnn(C2CCN(C(C)=O)CC2)c1` (stereo not drawn), with at most 10 nM.
Compound `CCOc1c(C(C)n2nc(C)c3c(N)ncnc32)cc(Cl)c(F)c1C1CN(C)C1` (stereo not drawn) gave an IC50 of at most 10 nM.
Consider `CCOc1c(C(C)n2nc(C)c3c(N)ncnc32)cc(Cl)c(C#N)c1N1CC(C#N)C1` (stereo not drawn), for which the half-inhibitory concentration (IC50) was at most 10 nM.
`COc1c(C(C)n2nc(C)c3c(N)ncnc32)cc(Cl)c(C#N)c1-c1ccc(C(=O)N(C)C)nc1` (stereo not drawn) returned a concentration for half-maximal inhibition (IC50) of at most 10 nM.
The compound `CCOc1c(C(C)n2nc(C)c3c(N)ncnc32)cc(Cl)c(C#N)c1C1CN(C(C)(C)C(N)=O)C1` (stereo not drawn) came in with an IC50 of at most 10 nM.
Take `CCOc1c(C(C)n2nc(C)c3c(N)ncnc32)cc(Cl)c(C#N)c1C1CN(CC2CCOCC2)C1` (stereo not drawn): the IC50 is at most 10 nM.
`CCOc1c(C(C)n2nc(C)c3c(N)ncnc32)cc(Cl)c(C)c1C1CN(CC(C)(C)O)C1` (stereo not drawn) registered an IC50 of at most 10 nM.
Compound `COc1c(C(C)n2nc(C)c3c(N)ncnc32)cc(Cl)c(C#N)c1C1CN(C(=O)OC(C)C)C1` (stereo not drawn) had an IC50 of at most 10 nM.
In the case of `CCOc1c(C(C)n2nc(C)c3c(N)ncnc32)cc(Cl)c(C#N)c1-c1cncnc1` (stereo not drawn), the IC50 is at most 10 nM.
On the same count and under the same terms, then `COc1c(C(C)n2nc(C)c3c(N)ncnc32)cc(Cl)c(C)c1CC#N` (stereo not drawn), with at most 10 nM.
In turn, `COc1c(C(C)n2nc(C)c3c(N)ncnc32)cc(Cl)c(C)c1-c1cnn(CCO)c1` (stereo not drawn) displayed an IC50 of at most 10 nM.
For the compound `CCOc1c(C(C)n2nc(C)c3c(N)ncnc32)cc(Cl)c(C#N)c1C1CN(C(C)=O)C1` (stereo not drawn), the half-maximal inhibitory concentration (IC50) is at most 10 nM.
Turning to `Cc1c(Cl)cc(C(C)n2nc(C)c3c(N)ncnc32)c(OCC2CC2)c1-c1ccc(C(=O)N(C)C)nc1` (stereo not drawn), the half-maximal inhibitory concentration (IC50) was at most 10 nM.
The compound `CCOc1c(C(C)n2nc(-c3ccn(C)n3)c3c(N)ncnc32)cc(Cl)c(C)c1-c1ccc(C(=O)N(C)C)nc1` (stereo not drawn) returned a half-maximal inhibitory concentration (IC50) of at most 10 nM.

The next assay has the same target.
Experiment: not given
Take `COc1c([C@@H](C)n2nc(C)c3c(N)ncnc32)cc(Cl)c(C#N)c1C1CN(C[C@@H](C)O)C1`: the IC50 lay in the range of 50 to 200 nM.

(Values after the Kinase Knowledgebase extract (Sharma et al. 2016).)
